Here are results for 4 substances from patent publication US8916517B2, “Analogs of pituitary adenylate cyclase-activating polypeptide (PACAP) and methods for their use” (The Administrators of the Tulane Educational Fund, priority 2009, dated 2014).

“And” between values parts separate entries of the source, which are not always exact repeats. Equal entries are not always repeated. “Also recorded” adds a separate entry of the source. Where two headings read alike, the source gives them in different places.

The test system of data set [1] is rat hippocampal neuron/glia co-cultures. The conditions noted are these: gp120 as neurotoxin; cited from earlier work.
For data set [2] the following is noted: humans; cited from earlier work.
For data set [3], the system named is rat renal proximal tubule epithelial cells. Nature of the data set: Reduction of cisplatin-induced apoptotic cell death of renal proximal tubule epithelial cells (histone-associated DNA fragmentation). It counts as cell-based. The conditions noted are these: cisplatin 24 hours; for reduction in cisplatin-induced apoptotic cell death: 10^-6 M in the medium.
The test system of data set [4] is light-chain immunoglobulin-secreting human multiple myeloma cells. Description: Inhibition of proliferation of light-chain immunoglobulin-secreting human multiple myeloma cells (bromodeoxyuridine incorporation). It counts as cell-based. The procedure: FIG. 3 is a table listing the EC50 for the inhibitory effects of PACAP38, PACAP27, VIP, and eight novel PACAP analogs on the proliferation of light-chain immunoglobulin-secreting myeloma cells. The light-chain immunoglobulin-secreting human multiple myeloma cells were cultured in RPMI 1640 medium supplemented with 10% non-inactivated fetal bovine serum and 0.05 mM 2-mercaptoethanol. The effects of PACAP38, PACAP27, VIP, and the eight novel PACAP analogs on myeloma cell proliferation were assessed by determining incorporation of bromodeoxyuridine into DNA during cell division. The number of myeloma cells approximately doubled during the 24-hour incubation period in the absence of treatment with PACAP-like peptides. Five different concentrations, ranging from 10^-13 M to 10^-5 M, were tested for PACAP38, PACAP27, VIP, and each of the eight novel PACAP analogs. The EC50 was calculated from the concentration response curve using the software package Prism (Graph Pad, San Diego, CA). Each value represents the mean of four-six determinations per experiment. The EC50 for PACAP38 is based on the average of four separate experiments, while the EC50 for PACAP27 and [Pip^3,Aib ^16,28,Ala^17,Lys^34,D-LysIPACAP 38 (SEQ ID NO: 4) is based on the average of two separate experiments.
FIG. 4 is a graph showing a representative concentration response curve from a single experiment on the inhibitory effects PACAP38 and six PACAP38 analogs on the proliferation of light-chain immunoglobulin-secreting human myeloma cells. Each value represents the mean plus/minus the standard error of four-six determinations. Note that replacing pipecolic acid in position 3 of the novel analogs with either nipecotic acid or isonipecotic acid results in an analog with more than four orders of magnitude lower inhibitory potency.
The effects of PACAP38, PACAP27, VIP, and PACAP analogs on myeloma cell proliferation were assessed by determining incorporation bromodeoxyuridine into DNA during cell division. […]

The target of another data set is T1, PAC1 receptor (Homo sapiens, UniProt P41586).
T1 sequence (P41586 21-468): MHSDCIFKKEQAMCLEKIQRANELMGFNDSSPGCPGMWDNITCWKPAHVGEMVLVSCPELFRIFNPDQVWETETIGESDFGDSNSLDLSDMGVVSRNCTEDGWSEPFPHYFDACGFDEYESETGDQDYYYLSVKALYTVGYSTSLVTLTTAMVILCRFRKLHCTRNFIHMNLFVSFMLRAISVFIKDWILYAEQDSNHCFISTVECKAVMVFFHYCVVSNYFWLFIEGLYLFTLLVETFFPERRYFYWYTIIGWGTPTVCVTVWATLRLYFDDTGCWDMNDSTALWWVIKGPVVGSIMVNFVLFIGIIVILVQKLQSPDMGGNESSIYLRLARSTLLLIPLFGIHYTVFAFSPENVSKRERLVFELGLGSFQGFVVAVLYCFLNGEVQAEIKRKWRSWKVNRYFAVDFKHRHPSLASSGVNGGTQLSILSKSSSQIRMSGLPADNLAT
The conditions noted are these: cited from earlier work.

The conditions of data set [5]: rat, in vivo, iv; cited from earlier work.
The test system of data set [6] is ischemia/reperfusion injury to the kidney. Description: Serum creatinine after renal ischemia/reperfusion injury in mice. It counts as in vivo, male C57BL/6 mice. The conditions noted are these: 20 micrograms i.p. 1, 24 and 48 h after start of reperfusion; 45 min renal artery clamping; 72 hours. As to the method: FIG. 6 is a graph showing the effects of PACAP38 and two novel PACAP analogs on serum creatinine levels in mice following ischemia/reperfusion injury to the kidney. The renal artery in male C57BL/6 mice was clamped bilaterally for 45 minutes in all mice except for the sham-operated mice. Twenty micrograms of PACAP38 or one of the PACAP analogs were given intraperitoneally 1 hour after the start of reperfusion and additional doses were given at 24 and 48 hours after the initial dose. The sham-operated group of mice was injected intraperitoneally with PACAP38 on the same schedule as the mice subjected to ischemia/reperfusion. The control group of mice was injected intraperitoneally with the same volume of saline as for the injections of PACAP38 on the same schedule. All of the mice were euthanized 24 hours after the final injection of saline, PACAP38 or one of the novel PACAP analogs. Each value represents the mean plus/minus the standard error of four determinations. **p<0.01 and *p<0.05 compared to the ischemia/reperfusion group treated with saline. I/R, ischemia/reperfusion; sham, sham-operated.

Data set [7] has as its system transient focal cerebral ischemia. The conditions noted are these: 48 hours, cited from earlier work.
The subject of data set [8] is human myeloma cell line (MM.1 R). Nature of the data set: Proliferation of dexamethasone-resistant myeloma cell line MM.1R (bromodeoxyuridine incorporation). It is filed as cell-based. The conditions noted are these: FIG. 9. The procedure: (§1) FIG. 9 is a graph showing the effects PACAP38, [Pip^3,Ala^14,17,Aib^16,28,Lys^34,D-Lys^38] PACAP38(SEQ ID NO: 6) and dexamethasone on the proliferation of light-chain immunoglobulin-secreting human myeloma cell line (MM.1 R) that was derived from a patient who was being treated for multiple myeloma with a dexamethasome-containing regimen. The light-chain immunoglobulin-secreting multiple myeloma cells were cultured in RPMI 1640 medium supplemented with 10% non-inactivated fetal bovine serum and 0.05mM 2-mercaptoethanol. The effects of dexamethasone, PACAP38 and the novel PACAP38 analog on cell proliferation were assessed by determining the incorporation of bromodeoxyuridine into DNA during cell division. Each value represents the mean plus/minus the standard error of four-six determination. The cell lines in FIGS. 8 and 9 were obtained from the same patient at different stages of the treatment (Greenstein et al., Exp Hematol 31 :271-282, 2003).

The test system of data set [9] is human myeloma cell line (MM.1S). Description: Proliferation of myeloma cell line MM.1S (bromodeoxyuridine incorporation). It is filed as cell-based. The conditions noted are these: FIG. 8. As to the method: as §1, with “FIG. 8” for “FIG. 9”, “PACAP38, [Pip^3,Ala^14,17,Aib^1 6,28,Lys^34,D-Lys^38 (SEQ” for “PACAP38, [Pip^3,Ala^14,17,Aib^16,28,Lys^34,D-Lys^38] PACAP38(SEQ”, “line (MM.1S)” for “line (MM.1 R)”, “novel PACAP38analog” for “novel PACAP38 analog”, “four-six determinations.” for “four-six determination.”, “Exp HematoI31” for “Exp Hematol 31”

The subject of data set [10] is human renal proximal tubule epithelial cells. Description: Reduction of gentamicin-induced apoptotic cell death of human renal proximal tubule epithelial cells. It is filed as cell-based. The conditions noted are these: gentamicin 24 hours. The procedure: The inhibitory effects of PACAP38 and the novel PACAP analog on apoptotic cell death was assessed by the quantitative determination of cytoplasmic histone-associated DNA-fragmentation (mono- and oligonucleosomes) after exposure to gentamicin for 24 hours. […] Each value represents the mean plus/minus the standard deviation of four determinations. **p<0.01 and *p<0.05 compared to the group treated only with gentamicin.

On to PACAP, for which, in [1], the “peaks of bimodal dose-response curve for prevention of neuronal death” value was 10^−13 M and 10^−10 M. The “only untoward effect reported” value in data set [2] is given as “transient flushing”.

Consider VIP, for which the “reduction in cisplatin-induced apoptotic cell death” value in data set [3] is listed as “reduced”. In addition, in data set [3] (comparable concentrations), the “cytoprotective potency compared with PACAP38” value is on record as “significantly less potent than PACAP38”. Also, in data set [4] (inhibition of myeloma cell proliferation), the “potency compared with PACAP38 or the novel PACAP38 analogs” value is “significantly less potent”. The “affinity for PAC1 receptor relative to PACAP” value with PAC1 receptor was 1,000 times less.

On to [^125I]-PACAP38, for which, in data set [5], the “half-life in the bloodstream” value is 5 to 6 min.

On to “HSDGIFTDSYSRYRKQMAVKKYLAAVLGKRYKQRVKNK [PACAP38]”, for which the “reduction in cisplatin-induced apoptotic cell death” value in data set [3] is recorded as “significant reduction”. Further, the “reversal of the rise in serum creatinine caused by ischemia/reperfusion” value in data set [6] is “almost completely reversed”. The figures for the “reduction of the infarct volume” value in data set [7] (continuous i.v. infusion beginning 4 hours after start of 2-hour MCAO), in data set [7] (continuous i.v. infusion beginning 8 hours after start of 2-hour MCAO) and in data set [7] (continuous i.v. infusion beginning 12 hours after start of 2-hour MCAO) were “approximately 51%”, approximately 22% and approximately 12%, respectively. For the same substance, the “sensitivity of cell proliferation” value is “still sensitive” in data set [8] and “sensitive” in data set [9]. Also, the EC50 in data set [4] (24-hour incubation, FIG. 3, read-out: concentration giving 50% inhibition of the rate of proliferation (EC50)) was approximately 0.25 nM. In data set [10], the “cytoprotective potency, PACAP38 versus [Pip^3]PACAP38” value was “more effective”. For the same substance, the “reduction in gentamicin-induced apoptotic cell death” value in [10] (various concentrations) is “significant dose-dependent reduction; also recorded: dose-dependent inhibition”.
